The target of data set [1] is T1, CaV1.2 (L-type voltage-dependent calcium channel; CACNA1C, CACNB2, CACNA2D1) (Homo sapiens, UniProt Q13936).
T1 construct: expressed in transfected cells; host or cells: CHO
The experiment in a line: CaV1.2 channel whole-cell patch clamp (Ion Channel Activity Measurement). Type of data set: cell-based. Conditions: human, room temperature; for inhibition at 5 min, 1 μM: pH 7.4, 1 μM test article; for inhibition at 5 min, 10 μM: pH 7.4, 10 μM test article, read-out: CaV 1.2 10 μM (ion-channel inhibition). The protocol:
• CHO cell line stably expressing human calcium channel, voltage-dependent, L type, • CACNA1C: cDNA strictly similar to GenBank accession number: NM_000719 • CACNB2: cDNA strictly similar to GenBank accession number: NM_000724 • CACNA2D1: cDNA strictly similar to GenBank accession number: NM_000722 Iks Channel Cell Line:
(§1) Cells expressing channels were cultured in medium supplemented with 20% FBS in HAM'S F12 culture dish. Cells grew in a humidified incubator at 37° C. under 5% carbon dioxide. To passage cells, remove poor medium and rinse the cells once with PBS 1X. […] Place plate on a 37° C. warming incubator 5 min. As soon as cells are detached, add 5 ml of 37° C. complete medium. Draw cell suspension into a sterile pipet and homogenize cells gently to dissociate cells aggregates. Amplify or maintain the cells by seeding 2.5*105 cells in a 6 cm dish (final volume: 5 ml). To maintain electrophysiological performances, cell density must not exceed 80%. On the day before patch clamp experiment, 3*103 cells were seeded on coverslips in the 24-well plate and incubated at 37° C. in 5% carbon dioxide.
Bath solution: 140 mM TEA-C1, 2 mM MgCl2·6H2O, 10 mM CaCl2, 10 mM HEPES, 5 mM D-glucose, pH=7.4 with TEA-OH. Pipette solution: 120 mM CsCl, 1 mM MgCl2·6H2O, 10 mM HEPES, 10 mM EGTA, 0.3 mM Na2-GTP, 4 mM Mg-ATP, pH=7.2 with CsOH.
(§2) Glass pipette (BF150-86-10, Sutter Instruments) was made by puller (P97, Sutter Instruments). The glass pipette was manipulated using Micro-manipulator (Carm-C-S, MCI Instruments) under the microscope (AE31EF-INV, Motic). After touching the cell, a slight suction was applied to achieve high seal (GΩ). Fast capacitance (in pF) compensation was made after high seal was achieved; after achieving high seal, the membrane was broken, Cell capacitance (in pF) compensation was made from whole-cell capacitance compensation after the whole cell mode was achieved. No leak subtraction was made.
(§3) Cell was incubated with the test article for 5 minutes, or until the current reached a steady-state level. Multiple concentrations of test article were tested. The test articles were applied gradually from low to high concentration. The test and control solutions were flown into a recording chamber mounted on the stage of an inverted microscope via a gravity-fed solution delivery system. During the experiment, solutions were withdrawn from the recording chamber by vacuum aspiration. Each concentration was tested at multiple times. Each cell acted as its own control. All tests were performed at room temperature (23-25° C.).
Cav1.2 current was recorded under a holding potential at −80 mV and then depolarized to +10 mV for 0.3 seconds. This protocol was repeated at 20 s intervals to observe the effect of test articles on the peak of Cav1.2 current.

For data set [2], the target named is T2, hERG (human ether-a-go-go related gene potassium channel, KCNH2) (Homo sapiens, UniProt Q12809).
T2 construct: expressed in transfected cells; host or cells: HEK293
The experiment in a line: hERG channel whole-cell patch clamp (Ion Channel Activity Measurement). Type of data set: cell-based. As to conditions: human, room temperature; for inhibition at 1 μM: pH 7.4, 1 μM test article; for inhibition at 10 μM: pH 7.4, 10 μM test article. The method, then:
HEK293 cell line expressing the human ERG (ether-a-go-go related gene) potassium channel (Potassium voltage-gated channel subfamily H member 2). cDNA strictly similar to GenBank accession number: NM_000238
as §1, §2, §3
hERG current was recorded under a holding potential at −80 mV and then depolarized to 30 mV for 2.5 seconds to activate the hERG channel. The peak tail currents were induced by a repolarizing pulse to −50 mV for 4 seconds. This voltage-clamp pulse protocol was performed continuously during the experiment. An interpulse interval of 10 seconds allowed recovery from inactivation. An interpulse of −50 mV test for 0.5 second before 30 mV depolarized step was included for leak current correction

Where [3] appears, read: HEK293 cells expressing the human ERG potassium channel.

A value given as a limit tells only on which side of the number the result lay.

T2 sequence (Q12809 whole entry): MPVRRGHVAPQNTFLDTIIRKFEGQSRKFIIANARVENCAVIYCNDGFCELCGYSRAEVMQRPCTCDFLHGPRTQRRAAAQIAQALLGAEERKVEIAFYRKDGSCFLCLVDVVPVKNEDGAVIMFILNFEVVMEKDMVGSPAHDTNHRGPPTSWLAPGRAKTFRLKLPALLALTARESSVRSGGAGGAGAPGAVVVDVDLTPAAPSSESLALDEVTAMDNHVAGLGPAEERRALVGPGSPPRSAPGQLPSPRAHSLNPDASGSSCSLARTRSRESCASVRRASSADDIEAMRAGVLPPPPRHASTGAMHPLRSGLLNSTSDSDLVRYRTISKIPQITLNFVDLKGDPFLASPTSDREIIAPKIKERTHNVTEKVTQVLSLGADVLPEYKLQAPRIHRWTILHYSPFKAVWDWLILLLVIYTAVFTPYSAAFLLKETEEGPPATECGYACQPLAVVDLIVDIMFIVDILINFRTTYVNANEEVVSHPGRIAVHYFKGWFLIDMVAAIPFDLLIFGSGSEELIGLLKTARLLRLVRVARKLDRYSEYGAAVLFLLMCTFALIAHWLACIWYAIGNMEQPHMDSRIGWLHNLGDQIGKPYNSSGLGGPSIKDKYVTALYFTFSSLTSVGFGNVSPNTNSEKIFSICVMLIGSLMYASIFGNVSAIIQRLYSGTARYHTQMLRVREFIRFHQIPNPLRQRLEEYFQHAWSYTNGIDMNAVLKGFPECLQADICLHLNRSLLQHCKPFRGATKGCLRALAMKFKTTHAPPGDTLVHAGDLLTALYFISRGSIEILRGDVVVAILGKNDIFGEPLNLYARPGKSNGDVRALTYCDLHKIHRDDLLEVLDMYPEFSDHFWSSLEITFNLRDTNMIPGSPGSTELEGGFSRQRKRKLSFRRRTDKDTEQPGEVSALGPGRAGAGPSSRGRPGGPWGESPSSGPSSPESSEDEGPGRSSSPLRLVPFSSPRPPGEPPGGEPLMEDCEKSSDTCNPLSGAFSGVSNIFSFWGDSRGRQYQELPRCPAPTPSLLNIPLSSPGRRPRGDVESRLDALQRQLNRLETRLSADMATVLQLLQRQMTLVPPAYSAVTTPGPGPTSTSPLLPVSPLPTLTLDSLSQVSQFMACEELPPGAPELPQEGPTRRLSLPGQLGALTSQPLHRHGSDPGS
T1 sequence (Q13936 1-2138 isoform Q13936-12): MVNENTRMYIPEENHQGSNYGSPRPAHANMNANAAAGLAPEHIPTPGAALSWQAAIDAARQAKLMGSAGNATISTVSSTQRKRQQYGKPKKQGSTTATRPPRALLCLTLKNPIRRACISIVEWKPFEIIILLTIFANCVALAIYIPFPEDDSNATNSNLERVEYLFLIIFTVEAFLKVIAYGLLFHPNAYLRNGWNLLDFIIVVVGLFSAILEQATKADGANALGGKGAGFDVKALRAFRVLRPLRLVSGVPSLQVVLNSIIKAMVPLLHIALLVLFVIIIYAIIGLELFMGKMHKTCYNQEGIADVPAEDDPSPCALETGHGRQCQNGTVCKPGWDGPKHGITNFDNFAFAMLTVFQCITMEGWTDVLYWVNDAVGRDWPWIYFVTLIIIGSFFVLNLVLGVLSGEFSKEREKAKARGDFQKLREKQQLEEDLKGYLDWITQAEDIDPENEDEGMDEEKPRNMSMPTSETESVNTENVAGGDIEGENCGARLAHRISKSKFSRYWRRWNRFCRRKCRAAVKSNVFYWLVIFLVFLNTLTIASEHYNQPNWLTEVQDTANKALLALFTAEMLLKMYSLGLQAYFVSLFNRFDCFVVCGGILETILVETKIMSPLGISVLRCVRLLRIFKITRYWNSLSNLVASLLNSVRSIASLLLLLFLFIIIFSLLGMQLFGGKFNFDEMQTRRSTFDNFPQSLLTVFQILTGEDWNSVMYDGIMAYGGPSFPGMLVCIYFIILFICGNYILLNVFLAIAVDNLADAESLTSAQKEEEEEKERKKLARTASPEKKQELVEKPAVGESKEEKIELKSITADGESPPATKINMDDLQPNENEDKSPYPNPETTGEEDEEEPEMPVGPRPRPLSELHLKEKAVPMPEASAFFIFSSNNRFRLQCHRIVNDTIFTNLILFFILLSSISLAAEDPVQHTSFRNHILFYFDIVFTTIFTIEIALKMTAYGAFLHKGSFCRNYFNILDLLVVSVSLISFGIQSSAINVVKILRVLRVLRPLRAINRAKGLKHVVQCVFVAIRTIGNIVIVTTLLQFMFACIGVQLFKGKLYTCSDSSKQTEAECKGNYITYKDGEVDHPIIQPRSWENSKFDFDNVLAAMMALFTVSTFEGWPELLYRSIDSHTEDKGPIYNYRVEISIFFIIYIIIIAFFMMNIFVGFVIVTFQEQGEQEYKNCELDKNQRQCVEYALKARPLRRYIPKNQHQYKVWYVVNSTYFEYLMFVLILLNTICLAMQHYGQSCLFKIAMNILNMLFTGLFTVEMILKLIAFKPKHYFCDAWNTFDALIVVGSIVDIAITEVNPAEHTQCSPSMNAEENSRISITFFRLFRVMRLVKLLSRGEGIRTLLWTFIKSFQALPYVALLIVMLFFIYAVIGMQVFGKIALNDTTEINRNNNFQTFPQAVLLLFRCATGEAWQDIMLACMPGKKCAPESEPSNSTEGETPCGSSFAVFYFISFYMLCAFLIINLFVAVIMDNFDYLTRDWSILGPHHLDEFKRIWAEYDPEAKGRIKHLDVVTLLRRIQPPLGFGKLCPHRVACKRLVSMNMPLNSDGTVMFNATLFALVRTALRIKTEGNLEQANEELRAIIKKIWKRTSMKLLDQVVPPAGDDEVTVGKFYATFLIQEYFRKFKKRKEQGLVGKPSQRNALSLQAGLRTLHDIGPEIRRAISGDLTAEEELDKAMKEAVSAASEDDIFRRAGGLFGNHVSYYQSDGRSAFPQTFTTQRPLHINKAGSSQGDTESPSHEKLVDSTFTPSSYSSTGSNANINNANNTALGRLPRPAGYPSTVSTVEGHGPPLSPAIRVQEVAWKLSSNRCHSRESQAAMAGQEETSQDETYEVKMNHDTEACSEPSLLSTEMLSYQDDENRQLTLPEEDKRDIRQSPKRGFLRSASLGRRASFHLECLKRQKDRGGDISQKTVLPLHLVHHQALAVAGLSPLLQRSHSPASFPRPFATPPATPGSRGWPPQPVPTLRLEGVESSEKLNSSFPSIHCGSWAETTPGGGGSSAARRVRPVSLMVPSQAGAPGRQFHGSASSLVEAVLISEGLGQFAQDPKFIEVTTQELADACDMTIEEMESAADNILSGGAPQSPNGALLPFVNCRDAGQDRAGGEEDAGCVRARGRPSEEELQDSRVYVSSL
T1 sequence (Q08289 1-605 isoform Q08289-2 partner): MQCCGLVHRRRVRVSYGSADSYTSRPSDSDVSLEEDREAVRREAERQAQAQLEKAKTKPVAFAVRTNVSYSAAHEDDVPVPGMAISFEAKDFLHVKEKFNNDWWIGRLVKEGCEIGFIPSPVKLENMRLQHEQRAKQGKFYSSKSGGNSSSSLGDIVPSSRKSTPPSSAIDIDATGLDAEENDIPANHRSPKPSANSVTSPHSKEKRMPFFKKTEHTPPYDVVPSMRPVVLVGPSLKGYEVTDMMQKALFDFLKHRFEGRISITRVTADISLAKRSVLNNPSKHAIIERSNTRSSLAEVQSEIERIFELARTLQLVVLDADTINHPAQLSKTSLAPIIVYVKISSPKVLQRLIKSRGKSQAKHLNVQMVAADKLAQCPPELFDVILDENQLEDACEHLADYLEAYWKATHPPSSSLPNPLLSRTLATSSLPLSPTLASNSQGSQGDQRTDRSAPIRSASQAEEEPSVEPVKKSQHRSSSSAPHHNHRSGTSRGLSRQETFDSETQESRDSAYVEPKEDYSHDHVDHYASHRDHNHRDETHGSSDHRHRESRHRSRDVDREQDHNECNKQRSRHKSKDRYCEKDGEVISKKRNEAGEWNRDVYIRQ
T1 sequence (P54289 25-1091 isoform P54289-2 partner limits assumed): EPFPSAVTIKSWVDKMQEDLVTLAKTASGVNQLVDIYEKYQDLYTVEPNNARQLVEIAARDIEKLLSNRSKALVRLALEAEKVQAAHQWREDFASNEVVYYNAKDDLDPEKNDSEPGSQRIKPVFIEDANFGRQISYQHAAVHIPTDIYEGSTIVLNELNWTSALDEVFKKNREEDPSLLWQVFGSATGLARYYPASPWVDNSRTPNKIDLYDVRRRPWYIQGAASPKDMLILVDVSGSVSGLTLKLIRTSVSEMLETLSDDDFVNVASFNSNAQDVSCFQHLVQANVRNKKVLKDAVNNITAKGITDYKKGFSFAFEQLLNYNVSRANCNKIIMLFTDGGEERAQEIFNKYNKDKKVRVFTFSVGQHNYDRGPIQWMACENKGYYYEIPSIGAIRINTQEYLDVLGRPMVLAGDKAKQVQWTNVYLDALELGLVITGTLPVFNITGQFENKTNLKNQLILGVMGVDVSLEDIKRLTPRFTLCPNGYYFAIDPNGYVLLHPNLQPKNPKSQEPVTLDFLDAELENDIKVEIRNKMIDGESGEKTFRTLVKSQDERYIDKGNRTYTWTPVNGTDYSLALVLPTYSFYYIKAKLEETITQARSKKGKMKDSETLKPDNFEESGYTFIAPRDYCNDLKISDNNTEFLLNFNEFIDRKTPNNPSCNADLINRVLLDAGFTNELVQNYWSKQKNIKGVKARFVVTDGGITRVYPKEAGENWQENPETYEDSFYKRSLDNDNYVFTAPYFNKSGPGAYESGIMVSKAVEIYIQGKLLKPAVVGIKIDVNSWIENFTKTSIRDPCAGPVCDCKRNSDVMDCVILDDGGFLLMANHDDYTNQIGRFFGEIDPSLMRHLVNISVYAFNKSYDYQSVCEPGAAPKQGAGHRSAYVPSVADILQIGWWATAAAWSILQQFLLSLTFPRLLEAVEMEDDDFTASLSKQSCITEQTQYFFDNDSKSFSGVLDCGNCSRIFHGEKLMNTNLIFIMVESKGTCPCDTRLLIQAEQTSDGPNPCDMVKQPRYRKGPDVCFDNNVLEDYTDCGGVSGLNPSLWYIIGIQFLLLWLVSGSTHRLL
T1 sequence (P54289 957-1103 partner limits assumed): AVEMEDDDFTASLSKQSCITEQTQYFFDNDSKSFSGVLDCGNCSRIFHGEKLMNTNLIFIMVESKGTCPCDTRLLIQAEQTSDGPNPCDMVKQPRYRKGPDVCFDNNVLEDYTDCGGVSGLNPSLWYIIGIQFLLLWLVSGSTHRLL

Regarding `Oc1cccc2c1C(c1c(O)ccc3ccccc13)CCC2` (stereo not drawn) [Compound A077, 1′,2′,3′,4′-tetrahydro-[1,1′-binaphthalene]-2,8′-diol], in data set [1], the inhibition at 5 min, 1 μM was less than 25% and the inhibition at 5 min, 10 μM is less than 25%. In data set [2] (setting [3]), this compound returned an inhibition at 1 μM of less than 25% and an inhibition at 10 μM of 50 to 75%.
Consider `Cc1cc2ccccc2c(O)c1Cc1c(C)cc2ccccc2c1O` [Compound A035, 2,2′-methylenebis(3-methylnaphthalen-1-ol)], for which, in data set [1], the inhibition at 5 min, 1 μM was less than 25% and the inhibition at 5 min, 10 μM was in the range of 75 to 100%. In data set [2] (setting [3]), the inhibition at 1 μM is less than 25% and the inhibition at 10 μM lay within 50 to 75%.
Turning to `CC(C)c1cc2ccccc2c(Cc2c(O)c(C(C)C)cc3ccccc23)c1O` [Compound A081, 1,1′-methylenebis(3-isopropylnaphthalen-2-ol)], in data set [1], the inhibition at 5 min, 1 μM is less than 25% and the inhibition at 5 min, 10 μM was 25 to 50%. Moreover, in data set [2] (setting [3]), the inhibition at 1 μM was less than 25% and the inhibition at 10 μM lay within 50 to 75%.
As to `Oc1cccc2c1C(c1c(O)ccc3ccccc13)=CC2` [Compound A078, 1-(4-hydroxy-1H-inden-3-yl)naphthalen-2-ol], in data set [1], the inhibition at 5 min, 1 μM is less than 25% and the inhibition at 5 min, 10 μM was less than 25%. For the same compound, in data set [2] (setting [3]), the inhibition at 1 μM was less than 25% and the inhibition at 10 μM is less than 25%.
As to `Oc1ccc2ccccc2c1Cc1c(OCCC2CCNCC2)ccc2ccccc12` [Compound A286, 1-((2-(2-(piperidin-4-yl)ethoxy)naphthalen-1-yl)methyl)naphthalen-2-ol], in data set [1], the inhibition at 5 min, 1 μM is less than 25% and the inhibition at 5 min, 10 μM fell in the range of 75 to 100%. The same compound registered an inhibition at 1 μM in data set [2] (setting [3]) of 75 to 100%.
Turning to `CCN(CC)CC(=O)Oc1ccc2ccccc2c1Cc1c(OC)ccc2ccccc12` [Compound A232, 1-((2-methoxynaphthalen-1-yl)methyl)naphthalen-2-yl diethylglycinate], in data set [1], the inhibition at 5 min, 1 μM was less than 25% and the inhibition at 5 min, 10 μM is 75 to 100%. For the same compound, in data set [2], the inhibition at 1 μM was in the range of 50 to 75% and the inhibition at 10 μM lay within 75 to 100%.
Regarding `CC(=O)N(c1c(O)ccc2ccccc12)c1c(O)ccc2ccccc12` [Compound A075, N,N-bis(2-hydroxynaphthalen-1-yl)acetamide], in data set [1], the inhibition at 5 min, 1 μM was less than 25% and the inhibition at 5 min, 10 μM was less than 25%. In data set [2] (setting [3]), this compound returned an inhibition at 1 μM of less than 25% and an inhibition at 10 μM of less than 25%.
As to `CCN(CC)CCOc1ccc2nccnc2c1Cc1c(O)ccc2ccccc12` [Compound A168, 1-((6-(2-(diethylamino)ethoxy)quinoxalin-5-yl)methyl)naphthalen-2-ol], in data set [1], the inhibition at 5 min, 1 μM is less than 25% and the inhibition at 5 min, 10 μM is less than 25%. In data set [2] (setting [3]), this compound yielded an inhibition at 1 μM of less than 25% and an inhibition at 10 μM of less than 25%.
`Oc1cccc2c1C(c1c(O)ccc3ccccc13)CC2` (stereo not drawn) [Compound A079, 1-(7-hydroxy-2,3-dihydro-1H-inden-1-yl)naphthalen-2-ol]: in data set [1], the inhibition at 5 min, 1 μM was less than 25% and the inhibition at 5 min, 10 μM fell in the range of 50 to 75%. Also, in data set [2] (setting [3]), the inhibition at 1 μM was less than 25% and the inhibition at 10 μM lay within 75 to 100%.
Turning to `CS(=O)(=O)Nc1cc(Cc2c(NS(C)(=O)=O)ccc3ccccc23)c2ccccc2c1` [Compound A024-2, N-(1-((3-(methylsulfonamido)naphthalen-1-yl)methyl)naphthalen-2-yl)methanesulfonamide], in data set [1], the inhibition at 5 min, 1 μM is less than 25% and the inhibition at 5 min, 10 μM is 25 to 50%. In data set [2] (setting [3]), this compound returned an inhibition at 1 μM of less than 25% and an inhibition at 10 μM of 50 to 75%.
For `COc1cccc(-c2ccncc2)c1Cc1c(O)cccc1-c1ccncc1` [Compound A118-I-1, 2-(2-methoxy-6-(pyridin-4-yl)benzyl)-3-(pyridin-4-yl)phenol], in data set [1], the inhibition at 5 min, 1 μM was less than 25% and the inhibition at 5 min, 10 μM was less than 25%. Moreover, in data set [2] (setting [3]), the inhibition at 1 μM was less than 25% and the inhibition at 10 μM was in the range of 25 to 50%.
For `CCOCOc1ccc2ccccc2c1Cc1c(OCCN2CCCC2)ccc2ccccc12` [Compound A254, 1-(2-((1-((2-(ethoxymethoxy)naphthalen-1-yl)methyl)naphthalen-2-yl)oxy)ethyl)pyrrolidine], in data set [1], the inhibition at 5 min, 1 μM was less than 25% and the inhibition at 5 min, 10 μM was 50 to 75%. In data set [2] (setting [3]), the inhibition at 1 μM was less than 25% and the inhibition at 10 μM fell in the range of 75 to 100%.
Regarding `CCN(CC)CCOc1ccc2ccccc2c1N(C)c1c(OC)ccc2ccccc12` [Compound A111-I-2, 2-(2-(diethylamino)ethoxy)-N-(2-methoxynaphthalen-1-yl)-N-methylnaphthalen-1-amine 2,2,2-trifluoroacetate], in data set [1], the inhibition at 5 min, 1 μM was less than 25% and the inhibition at 5 min, 10 μM was in the range of 25 to 50%. In data set [2] (setting [3]), the inhibition at 1 μM lay within 50 to 75% and the inhibition at 10 μM lay within 75 to 100%.
For `CCN(CC)CCOc1ccc2cc(C(=O)O)ccc2c1Cc1c(O)ccc2cc(C(=O)O)ccc12` [Compound A125, 5-((6-carboxy-2-(2-(diethylamino)ethoxy)naphthalen-1-yl)methyl)-6-hydroxy-2-naphthoic acid], in data set [1], the inhibition at 5 min, 1 μM was less than 25% and the inhibition at 5 min, 10 μM fell in the range of 75 to 100%. The inhibition at 1 μM in data set [2] (setting [3]) was less than 25%.
On to `Nc1cc(Cc2c(N)ccc3ccccc23)c2ccccc2c1` [Compound A022-2, 4-((2-aminonaphthalen-1-yl)methyl)naphthalen-2-amine], for which, in data set [1], the inhibition at 5 min, 1 μM was less than 25% and the inhibition at 5 min, 10 μM lay in the range of 25 to 50%. In data set [2] (setting [3]), the inhibition at 1 μM is less than 25% and the inhibition at 10 μM was 75 to 100%.
As for `COc1ccc(COCc2ccc3ccccc3c2C(O)c2c(COCc3ccc(OC)cc3)ccc3ccccc23)cc1` [Compound A080, bis(2-(((4-methoxybenzyl)oxy)methyl)naphthalen-1-yl)methanol], in data set [1], the inhibition at 5 min, 1 μM is less than 25% and the inhibition at 5 min, 10 μM lay in the range of 25 to 50%. Moreover, in data set [2] (setting [3]), the inhibition at 1 μM was less than 25% and the inhibition at 10 μM is less than 25%.
For the compound `Oc1ccc2ccccc2c1Cn1nc(-c2ccccc2)cc1O` [Compound A059], in data set [1], the inhibition at 5 min, 1 μM is less than 25% and the inhibition at 5 min, 10 μM was less than 25%. Further, in data set [2], the inhibition at 1 μM was less than 25% and the inhibition at 10 μM was less than 25%.
`COc1cccc(C2CCNCC2)c1Cc1c(OC)cccc1C1CCNCC1` [Compound A194]: in data set [1], the inhibition at 5 min, 1 μM lay in the range of 25 to 50% and the inhibition at 5 min, 10 μM was in the range of 50 to 75%. In data set [2], this compound registered an inhibition at 1 μM of less than 25% and an inhibition at 10 μM of 25 to 50%.
As to `Nc1ccc2ccccc2c1Cc1c(O)ccc2ccccc12` [Compound A021, 1-((2-aminonaphthalen-1-yl)methyl)naphthalen-2-ol], in data set [1], the inhibition at 5 min, 1 μM was less than 25% and the inhibition at 5 min, 10 μM is less than 25%. Also, in data set [2] (setting [3]), the inhibition at 1 μM is less than 25% and the inhibition at 10 μM was less than 25%.
Consider `Nc1ccc2ccccc2c1Cc1c(N)ccc2ccccc12` [Compound A022, 1,1′-methylenebis(naphthalen-2-amine)], for which, in data set [1], the inhibition at 5 min, 1 μM is less than 25% and the inhibition at 5 min, 10 μM was in the range of 50 to 75%. In data set [2], the inhibition at 1 μM was less than 25% and the inhibition at 10 μM was 50 to 75%.

Values taken from US12187681B2 (Shanghai East Hospital, priority 2019, dated 2025).
